The structures appear in SMILES notation. Read-outs that look alike come from different tables or passages of the source.

By Ki is commonly meant a dissociation constant, usually derived from enzyme kinetics or from competition with a known ligand.

This assay has as its target T1, c-MET (HGFR) (Homo sapiens, UniProt P08581).
T1 construct: purchased Upstate 14-526
Nature of the assay: HGFR Continuous-Coupled Spectrophotometric Assay. The format is biochemical. The following applies: Met-2 substrate peptide, 50 nM HGFR, 37° C. The gist of the method:
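Tyrosine kinase activity of 50 nM HGFR on the activation-loop Met-2 peptide, followed as NADH consumption at 340 nm over 10 min at 37 °C in a pyruvate kinase/LDH coupled system, HEPES pH 7.5 buffer with MgCl2 and DTT.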

T1 sequence (P08581 974-1390 limits assumed): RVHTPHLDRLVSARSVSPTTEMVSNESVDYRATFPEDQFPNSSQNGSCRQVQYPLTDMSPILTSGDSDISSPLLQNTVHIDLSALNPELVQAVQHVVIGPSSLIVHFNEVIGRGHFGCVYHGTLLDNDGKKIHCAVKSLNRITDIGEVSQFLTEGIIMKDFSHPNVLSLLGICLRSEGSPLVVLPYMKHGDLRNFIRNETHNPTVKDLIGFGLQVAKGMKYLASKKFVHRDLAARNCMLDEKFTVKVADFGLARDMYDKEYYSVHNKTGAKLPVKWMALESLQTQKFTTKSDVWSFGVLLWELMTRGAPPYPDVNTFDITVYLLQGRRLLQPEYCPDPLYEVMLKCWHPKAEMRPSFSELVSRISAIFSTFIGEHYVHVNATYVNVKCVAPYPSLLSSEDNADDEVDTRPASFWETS

Take `CC(Oc1cc(-c2cnn(C(C)(C)C(=O)NCCN3CCOCC3)c2)cnc1N)c1c(Cl)ccc(F)c1Cl` (stereo not drawn) [Example 19, 2-(4-{6-Amino-5-[1-(2,6-dichloro-3-fluoro-phenyl)-ethoxy]-pyridin-3-yl}-pyrazol-1-yl)-N-(2-morpholin-4-yl-ethyl)-isobutyramide]: the Ki (read-out: c-Met Ki) amounted to 140 nM.

Regarding `CC(Oc1cc(-c2cnn(CC3CN(S(C)(=O)=O)C3)c2)cnc1N)c1c(Cl)ccc(F)c1Cl` (stereo not drawn) [Example 107, 3-[1-(2,6-dichloro-3-fluorophenyl)ethoxy]-5-(1-{[1-(methylsulfonyl)azetidin-3-yl]methyl}-1H-pyrazol-4-yl)pyridin-2-amine], the Ki (read-out: c-Met Ki) stood at 44 nM.

Turning to `CC(Oc1cc(-c2cnn(CCO)c2)cnc1N)c1c(Cl)ccc(F)c1Cl` (stereo not drawn) [Example 83, 2-(4-{6-Amino-5-[1-(2,6-dichloro-3-fluoro-phenyl)-ethoxy]-pyridin-3-yl}-pyrazol-1-yl)-ethanol], the Ki (read-out: c-Met Ki) stood at 46 nM.

Regarding `CC(Oc1cc(-c2cnn(C)c2)cnc1N)c1c(Cl)c(F)cc(OC2CNC2)c1Cl` (stereo not drawn) [Example 155, 3-{1-[3-(Azetidin-3-yloxy)-2,6-dichloro-5-fluoro-phenyl]-ethoxy}-5-(1-methyl-1H-pyrazol-4-yl)-pyridin-2-ylamine], the Ki (read-out: Met Ki) was 29 nM.

`Cc1nn(C(C)(C)C(=O)O)cc1-c1cnc(N)c(OC(C)c2c(Cl)ccc(F)c2Cl)c1` (stereo not drawn) [Example 33, 2-(4-{6-Amino-5-[1-(2,6-dichloro-3-fluoro-phenyl)-ethoxy]-pyridin-3-yl}-3-methyl-pyrazol-1-yl)-2-methyl-propionic acid]: where the note is “read-out: c-Met Ki”, the Ki came to 130 nM.

`CC(Oc1cc(-c2cnn(C3CCNCC3)c2)cnc1N)c1cc(F)ccc1Br` (stereo not drawn) [Example 128, 3-[1-(2-Bromo-5-fluoro-phenyl)-ethoxy]-5-(1-piperidin-4-yl-1H-pyrazol-4-yl)-pyridin-2-ylamine]: under “read-out: Met Ki”, the Ki was found to be 349 nM.

As for `CC(Oc1cc(-c2cnn(C3CCN(C(=O)CO)CC3)c2)cnc1N)c1c(Cl)ccc(F)c1Cl` (stereo not drawn) [Example 40, 1-[4-(4-{6-Amino-5-[1-(2,6-dichloro-3-fluoro-phenyl)-ethoxy]-pyridin-3-yl}-pyrazol-1-yl)-piperidin-1-yl]-2-hydroxy-ethanone], the Ki (read-out: c-Met Ki) amounted to 10 nM.

As for `CC(Oc1cc(-c2cnn(CC3(O)CCNCC3)c2)cnc1N)c1c(Cl)ccc(F)c1Cl` (stereo not drawn) [Example 4, 4-[(4-{6-amino-5-[1-(2,6-dichloro-3-fluorophenyl)ethoxy]pyridin-3-yl}1H-pyrazol-1-yl)methyl]piperidin-4-ol], the Ki (read-out: c-Met Ki) turned out to be 62 nM.

In the case of `CC(Oc1cc(-c2cnn(C[C@@H]3CCCN3)c2)cnc1N)c1c(Cl)ccc(F)c1Cl` (stereo partly drawn) [Example 64, 3-[1-(2,6-Dichloro-3-fluoro-phenyl)-ethoxy]-5-(i-(S)-1-pyrrolidin-2-ylmethyl-1H-pyrazol-4-yl)-pyridin-2-ylamine], the Ki (read-out: c-Met Ki) is 41.5 nM.

Take `CC(Oc1cc(-c2cnn(C)c2)cnc1N)c1c(Cl)c(F)cc(F)c1Cl` (stereo not drawn) [Example 149, 3-[1-(2,6-Dichloro-3,5-difluoro-phenyl)-ethoxy]-5-(1-methyl-1H-pyrazol-4-yl)-pyridin-2-ylamine]: under “read-out: Met Ki”, the Ki was determined as 72 nM.

As for `CC(Oc1cc(-c2cnn(C3CCNCC3)c2)cnc1N)c1c(Cl)c(F)cc(N2CCCC2=O)c1Cl` (stereo not drawn) [Example 157, 1-(3-{1-[2-Amino-5-(1-piperidin-4-yl-1H-pyrazol-4-yl)-pyridin-3-yloxy]-ethyl]-2,4-dichloro-5-fluoro-phenyl)-pyrrolidin-2-one], the Ki (read-out: Met Ki) worked out at 51 nM.

As for `CC(Oc1cc(-c2cnn(C)c2)cnc1N)c1c(Cl)c(F)cc(O[C@@H]2CCNC2)c1Cl` (stereo partly drawn) [Example 152, 3-{1-[2,6-Dichloro-3-fluoro-5-(pyrrolidin-3R-yloxy)-phenyl]-ethoxy}-5-(1-methyl-1H-pyrazol-4-yl)-pyridin-2-ylamine], the Ki (read-out: Met Ki) was 32 nM.

With `CC(Oc1cc(-c2cnn(C3CN(C(C)C)C3)c2)cnc1N)c1c(Cl)ccc(F)c1Cl` (stereo not drawn) [Example 97, 3-[1-(2,6-dichloro-3-fluorophenyl)ethoxy]-5-[1-(1-isopropylazetidin-3-yl)-1H-pyrazol-4-yl]pyridin-2-amine], for the setting “read-out: c-Met Ki”, the Ki turned out to be 30 nM.

`CCN(CC)C(=O)C(C)(C)n1cc(-c2cnc(N)c(OC(C)c3c(Cl)ccc(F)c3Cl)c2)cn1` (stereo not drawn) [Example 55, 2-(4-{6-Amino-5-[1-(2,6-dichloro-3-fluoro-phenyl)-ethoxy]-pyridin-3-yl}-pyrazol-1-yl)-N,N-diethyl-isobutyramide]: the Ki (read-out: c-Met Ki) stood at 396 nM.

As for `CC(Oc1cc(-c2cnn(C[C@H]3C[C@@H]3C(=O)N(C)C)c2)cnc1N)c1c(Cl)ccc(F)c1Cl` (stereo in doubt) [Example 11, 2-[(4-{6-amino-5-[1-(2,6-dichloro-3-fluorophenyl)ethoxy]pyridin-3-yl}-1H-pyrazol-1-yl)methyl]-N,N-dimethylcyclopropanecarboxamide], under “read-out: c-Met Ki”, the Ki turned out to be 144 nM.

Values taken from patent US20060128724A1, “Pyrazole-substituted aminoheteroaryl compounds as protein kinase inhibitors” (AGOURON PHARMACEUTICALS, INC., priority 2004, published 2006).
